Experimental data as given in paper PMC10746543, “Design principles for cyclin K molecular glue degraders” (Nature Chemical Biology, 2023).
Several values for one entry are separate records, joined by “and”; a condition that tells them apart may be missing. Identical values can stand only once. Like-named read-outs stand apart in the source and are kept apart here.

Columns and labels:
CDK12–cyclin K and DDB1 = target: T1, CDK12–cyclin K and DDB1 (Homo sapiens, UniProt Q16531+Q9NYV4, K965R); test: TR-FRET ternary complex formation assay (compound titration); type: binding; details: for TR-FRET signal at compound concentration 4.68 nM / TR-FRET signal at compound concentration 21.6 nM / TR-FRET signal at compound concentration 36 nM / TR-FRET signal at compound concentration 79.2001 nM / TR-FRET signal at compound concentration 158.4 nM / TR-FRET signal at compound concentration 309.6 nM / TR-FRET signal at compound concentration 626.401 nM / TR-FRET signal at compound concentration 1252.8 nM / TR-FRET signal at compound concentration 2448 nM / TR-FRET signal at compound concentration 9936.01 nM / TR-FRET signal at compound concentration 20016 nM: raw titration data; for TR-FRET signal at compound concentration: replicate titrations
T1 construct: His6–CDK12 (a.a. 713–1,052); full-length or beta-propeller B domain deletion (ΔBPB: a.a. 396–705 deleted) constructs of His6–DDB1ΔBPB, StrepII–Avi–DDB1, or His6–Spy–DDB1; made in house; host or cells: Trichoplusia ni High Five insect cells (baculovirus)
Summary of the method: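 TR-FRET ratio 520/490 nm; 70 μs delay before read to suppress background.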

HEK293T cells = test: Drug sensitivity assay (CellTiter-Glo viability) with or without MLN4924 pretreatment; type: cell-based, human; details: Supplementary Table 2; for EC50: Homo sapiens, HEK-293T, HEK293T viability, 72 h, compound alone, read-out: Cellular assays EC50; for Toxicity rescue: MLN4924-mediated cytotoxicity rescue, 10 µM used where n.d.
Summary of the method: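 Luminescent ATP read-out (CellTiter-Glo) after 3 days of drug exposure, normalised to DMSO controls. Cells were HEK293T–Cas9, pretreated with 100 nM MLN4924 or DMSO for 2 h before drug dispensing.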

[1] = test system: cyclin K–eGFP degradation reporter; test: Cyclin K reporter stability analysis (dual-color cyclin K–eGFP reporter); type: cell-based, human
Summary of the method: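 Readout was the eGFP-to-mCherry geometric-mean ratio by flow cytometry, normalized to three DMSO controls, after 5 h drug exposure. Cells used were HEK293T–Cas9 expressing the dual-colour cyclin K–eGFP degradation reporter.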

[2] = Supplementary Table 2, read-out: TR-FRET EC50 TR-FRET
[3] = compound concentration 79.2001 nM
[4] = compound concentration 158.4 nM
[5] = compound concentration 309.6 nM
[6] = compound concentration 626.401 nM
[7] = compound concentration 1252.8 nM
[8] = compound concentration 9936.01 nM
[9] = compound concentration 20016 nM
[10] = in vitro complex formation, 50 nM CDK12–cyclin K, 100 nM DDB1, text and figures, read-out: TR-FRET EC50
[11] = sheet MOESM7, read-out: log TR-FRET EC50 (converted)
[12] = Supplementary Table 2, HEK293T cycK-eGFP reporter, 5 h, read-out: Cellular assays DC50

T1 sequence (Q9NYV4 713-1052 K965R): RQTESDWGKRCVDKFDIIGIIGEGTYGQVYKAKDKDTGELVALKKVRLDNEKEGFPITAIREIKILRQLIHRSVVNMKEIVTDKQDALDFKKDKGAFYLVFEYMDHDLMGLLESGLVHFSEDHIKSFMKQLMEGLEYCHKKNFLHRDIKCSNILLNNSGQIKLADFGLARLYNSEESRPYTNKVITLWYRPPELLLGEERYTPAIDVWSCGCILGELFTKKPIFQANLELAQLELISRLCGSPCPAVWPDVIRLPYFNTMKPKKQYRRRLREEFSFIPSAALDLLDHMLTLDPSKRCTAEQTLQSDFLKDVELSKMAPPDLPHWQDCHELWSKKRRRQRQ
T1 sequence (O75909 1-267 partner): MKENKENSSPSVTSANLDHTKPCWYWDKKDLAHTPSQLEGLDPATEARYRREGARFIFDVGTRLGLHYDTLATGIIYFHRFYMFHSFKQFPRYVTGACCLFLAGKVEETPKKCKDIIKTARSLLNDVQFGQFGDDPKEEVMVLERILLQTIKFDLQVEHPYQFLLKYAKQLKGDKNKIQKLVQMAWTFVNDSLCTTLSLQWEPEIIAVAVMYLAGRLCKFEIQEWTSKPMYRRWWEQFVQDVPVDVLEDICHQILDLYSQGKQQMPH
T1 sequence (Q16531 whole entry): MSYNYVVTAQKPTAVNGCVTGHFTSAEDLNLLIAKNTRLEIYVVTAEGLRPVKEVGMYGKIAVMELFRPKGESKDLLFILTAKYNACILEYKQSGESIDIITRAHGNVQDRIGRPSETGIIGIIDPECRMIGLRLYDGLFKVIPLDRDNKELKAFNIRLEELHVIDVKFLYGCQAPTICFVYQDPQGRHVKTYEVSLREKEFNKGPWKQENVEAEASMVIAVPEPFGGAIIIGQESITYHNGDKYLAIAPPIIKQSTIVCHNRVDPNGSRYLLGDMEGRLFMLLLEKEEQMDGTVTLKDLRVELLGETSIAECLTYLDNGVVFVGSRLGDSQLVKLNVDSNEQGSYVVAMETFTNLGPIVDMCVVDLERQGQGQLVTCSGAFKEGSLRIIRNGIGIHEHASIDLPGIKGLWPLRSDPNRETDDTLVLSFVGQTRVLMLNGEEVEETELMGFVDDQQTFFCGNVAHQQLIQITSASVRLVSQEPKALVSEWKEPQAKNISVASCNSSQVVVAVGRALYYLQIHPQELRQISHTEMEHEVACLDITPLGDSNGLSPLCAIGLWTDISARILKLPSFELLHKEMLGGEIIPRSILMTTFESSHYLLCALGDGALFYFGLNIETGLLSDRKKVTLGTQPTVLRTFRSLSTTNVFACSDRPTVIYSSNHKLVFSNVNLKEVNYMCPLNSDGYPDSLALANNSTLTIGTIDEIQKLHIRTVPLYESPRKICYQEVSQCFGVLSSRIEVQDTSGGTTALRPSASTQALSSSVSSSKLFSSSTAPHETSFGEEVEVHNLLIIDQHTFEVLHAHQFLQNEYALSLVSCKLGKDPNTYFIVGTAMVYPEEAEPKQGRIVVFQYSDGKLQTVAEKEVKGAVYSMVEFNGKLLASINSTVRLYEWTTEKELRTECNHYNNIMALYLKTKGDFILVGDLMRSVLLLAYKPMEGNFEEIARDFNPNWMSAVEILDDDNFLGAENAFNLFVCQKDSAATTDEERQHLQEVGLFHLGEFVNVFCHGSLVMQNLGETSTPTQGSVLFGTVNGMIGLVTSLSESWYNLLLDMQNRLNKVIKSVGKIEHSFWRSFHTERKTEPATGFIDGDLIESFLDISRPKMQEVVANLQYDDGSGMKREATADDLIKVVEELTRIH

Structure (SMILES): CCCCc1ccc(CNc2nc(N[C@H](CC)CO)nc3c2ncn3C(C)C)cc1 [DS03]
- EC50 (CDK12–cyclin K and DDB1; [2]): 0.185 µM
- TR-FRET signal, individual replicate (CDK12–cyclin K and DDB1; compound concentration 4.68 nM): 0.1665 and 0.1912
- TR-FRET signal, individual replicate (CDK12–cyclin K and DDB1; compound concentration 21.6 nM): 0.2604 and 0.3178
- TR-FRET signal, individual replicate (CDK12–cyclin K and DDB1; compound concentration 36 nM): 0.4113 and 0.4843
- TR-FRET signal, individual replicate (CDK12–cyclin K and DDB1; [3]): 0.6704 and 0.7869
- TR-FRET signal, individual replicate (CDK12–cyclin K and DDB1; [4]): 0.9573 and 1.072
- TR-FRET signal, individual replicate (CDK12–cyclin K and DDB1; [5]): 1.2282 and 1.396
- TR-FRET signal, individual replicate (CDK12–cyclin K and DDB1; [6]): 1.549 and 1.7468
- TR-FRET signal, individual replicate (CDK12–cyclin K and DDB1; [7]): 1.782 and 2.014
- TR-FRET signal, individual replicate (CDK12–cyclin K and DDB1; compound concentration 2448 nM): 1.858 and 2.0804
- TR-FRET signal, individual replicate (CDK12–cyclin K and DDB1; [8]): 1.8943 and 2.138
- TR-FRET signal, individual replicate (CDK12–cyclin K and DDB1; [9]): 1.837 and 2.0323
- EC50 (CDK12–cyclin K and DDB1; [10]): 0.185 ± 0.022 µM
- EC50 (CDK12–cyclin K and DDB1; [11]): 0.185 µM
- EC50 (HEK293T cells): > 10 µM
- Toxicity rescue (HEK293T cells): 0%
- DC50 [1, 12]: > 10 µM

Structure (SMILES): CC(C)n1cnc2c(NCc3ccc(-c4ccccn4)cc3)nc(NCCCCCC(=O)N[C@H]3O[C@H](CO)[C@@H](O)[C@H](O)[C@H]3O)nc21 [DS51]
- EC50 (CDK12–cyclin K and DDB1; [2]): 0.274 µM
- TR-FRET signal at compound concentration 4.68 nM (CDK12–cyclin K and DDB1; compound concentration 4.68 nM): 0.2297 and 0.2444
- TR-FRET signal at compound concentration 21.6 nM (CDK12–cyclin K and DDB1; compound concentration 21.6 nM): 0.3216 and 0.3313
- TR-FRET signal at compound concentration 36 nM (CDK12–cyclin K and DDB1; compound concentration 36 nM): 0.5067 and 0.5037
- TR-FRET signal at compound concentration 79.2001 nM (CDK12–cyclin K and DDB1; [3]): 0.816 and 0.7927
- TR-FRET signal at compound concentration 158.4 nM (CDK12–cyclin K and DDB1; [4]): 1.255 and 1.244
- TR-FRET signal at compound concentration 309.6 nM (CDK12–cyclin K and DDB1; [5]): 1.886 and 1.872
- TR-FRET signal at compound concentration 626.401 nM (CDK12–cyclin K and DDB1; [6]): 2.526 and 2.552
- TR-FRET signal at compound concentration 1252.8 nM (CDK12–cyclin K and DDB1; [7]): 3.049 and 3.029
- TR-FRET signal at compound concentration 2448 nM (CDK12–cyclin K and DDB1; compound concentration 2448 nM): 3.216 and 3.3184
- TR-FRET signal at compound concentration 9936.01 nM (CDK12–cyclin K and DDB1; [8]): 3.256 and 3.415
- TR-FRET signal at compound concentration 20016 nM (CDK12–cyclin K and DDB1; [9]): 3.017 and 3.197
- EC50 (CDK12–cyclin K and DDB1; [10]): 0.275 ± 0.016 µM
- EC50 (CDK12–cyclin K and DDB1; [11]): 0.274 µM
- EC50 (HEK293T cells): > 10 µM
- Toxicity rescue (HEK293T cells): 0%
- DC50 [1, 12]: > 10 µM

Structure (SMILES): CC[C@H](CO)Nc1nc(NCc2ccc(-c3ccc4ccccc4c3)cc2)c2ncn(C(C)C)c2n1 [DS05]
- EC50 (CDK12–cyclin K and DDB1; [2]): 0.935 µM
- TR-FRET signal at compound concentration (CDK12–cyclin K and DDB1; compound concentration 4.68 nM): 0.139 and 0.157
- TR-FRET signal at compound concentration (CDK12–cyclin K and DDB1; compound concentration 21.6 nM): 0.1423 and 0.1615
- TR-FRET signal at compound concentration (CDK12–cyclin K and DDB1; compound concentration 36 nM): 0.1531 and 0.1764
- TR-FRET signal at compound concentration (CDK12–cyclin K and DDB1; [3]): 0.1718 and 0.1914
- TR-FRET signal at compound concentration (CDK12–cyclin K and DDB1; [4]): 0.1925 and 0.2133
- TR-FRET signal at compound concentration (CDK12–cyclin K and DDB1; [5]): 0.2424 and 0.278
- TR-FRET signal at compound concentration (CDK12–cyclin K and DDB1; [6]): 0.3125 and 0.3604
- TR-FRET signal at compound concentration (CDK12–cyclin K and DDB1; [7]): 0.4172 and 0.4741
- TR-FRET signal at compound concentration (CDK12–cyclin K and DDB1; compound concentration 2448 nM): 0.5249 and 0.5984
- TR-FRET signal at compound concentration (CDK12–cyclin K and DDB1; [8]): 0.656 and 0.7191
- TR-FRET signal at compound concentration (CDK12–cyclin K and DDB1; [9]): 0.5857 and 0.628
- EC50 (CDK12–cyclin K and DDB1; [10]): 0.936 ± 0.112 µM
- EC50 (CDK12–cyclin K and DDB1; [11]): 0.935 µM
- EC50 (HEK293T cells): > 10 µM
- Toxicity rescue (HEK293T cells): 0%
- DC50 [1, 12]: > 10 µM

Structure (SMILES): COc1ccccc1CCNC(=O)CNc1nc(NCc2ccc(-c3ccccn3)cc2)c2ncn(C(C)C)c2n1 [DS50]
- TR-FRET signal at compound concentration 4.68 nM (CDK12–cyclin K and DDB1; compound concentration 4.68 nM): 0.2095 and 0.2212
- TR-FRET signal at compound concentration 21.6 nM (CDK12–cyclin K and DDB1; compound concentration 21.6 nM): 0.2225 and 0.2323
- TR-FRET signal at compound concentration 36 nM (CDK12–cyclin K and DDB1; compound concentration 36 nM): 0.253 and 0.2736
- TR-FRET signal at compound concentration 79.2001 nM (CDK12–cyclin K and DDB1; [3]): 0.3096 and 0.3199
- TR-FRET signal at compound concentration 158.4 nM (CDK12–cyclin K and DDB1; [4]): 0.4094 and 0.4186
- TR-FRET signal at compound concentration 309.6 nM (CDK12–cyclin K and DDB1; [5]): 0.5758 and 0.5879
- TR-FRET signal at compound concentration 626.401 nM (CDK12–cyclin K and DDB1; [6]): 0.9565 and 0.9048
- TR-FRET signal at compound concentration 1252.8 nM (CDK12–cyclin K and DDB1; [7]): 1.567 and 1.497
- TR-FRET signal at compound concentration 2448 nM (CDK12–cyclin K and DDB1; compound concentration 2448 nM): 2.482 and 2.457
- TR-FRET signal at compound concentration 9936.01 nM (CDK12–cyclin K and DDB1; [8]): 3.626 and 3.7316
- TR-FRET signal at compound concentration 20016 nM (CDK12–cyclin K and DDB1; [9]): 3.761 and 3.946
- EC50 (CDK12–cyclin K and DDB1; [11]): 1.92 µM
- EC50 (CDK12–cyclin K and DDB1; source data sheet correlations, read-out: TR-FRET EC50): 1.92 µM
- EC50 (HEK293T cells): > 10 µM
- Toxicity rescue (HEK293T cells): 0%
- DC50 ([1]; source data sheet correlations, read-out: DC50): 3.57 µM
